The nature of data set [1]: Decomposition temperature by TGA. The class given is physicochemical. The settings on record: for Decomposition temperature: TGA, onset of the first derivative of sample weight loss v. temperature; for decomposes at: as stated in the description of the embodiments. As to the method: The LOD and decomposition temperature of the salts of the invention were determined by TGA, and the melting point was determined by DSC.

Data set [2] can be described thus: Hygroscopicity by TGA after one day at ambient temperature and 93% relative humidity. The class given is physicochemical. To be noted: ambient temperature. The method, then: The hygroscopicity of the salts of the invention was determined by TGA after one day at ambient temperature and 93% relative humidity.
For data set [3] the following is noted: pH 3.0 buffer, ambient temperature, at least 20 hours.
Protocol: The solubility of the salts of the invention was determined in pH 6.8, pH 3.0 and pH 1.0 buffers by suspending 1-5 mg of each salt in 10 mL of corresponding aqueous solution. The samples were allowed to equilibrate at ambient temperature for at least 20 hours for pH 6.8 and 3.0 or about 5 hours for pH 1.0. The supernatant was filtered and used for the solubility determination by UV-VIS spectroscopy.

Where a name gives a salt, the structure may show the parent alone. Read-outs that look alike come from different tables or passages of the source.

Molecule `Cc1cn(-c2cc(NC(=O)c3ccc(C)c(Nc4nccc(-c5cccnc5)n4)c3)cc(C(F)(F)F)c2)cn1` [Benzene sulfonate, 4-methyl-N-[3-(4-methyl-imidazol-1-yl)-5-trifluoromethyl-phenyl]-3-(4-pyridin-3-yl-pyrimidin-2-ylamino)-benzamide mono benzyl sulfonate salt] had a Decomposition temperature in data set [1] of 260 °C. Moreover, the “decomposes at” value in data set [1] (listed as benzene sulfonate salt) is “about 260 °C”. Moreover, in data set [2], the “% moisture gain” value was found to be 0.11%.

With `CCS(=O)(=O)O.Cc1cn(-c2cc(NC(=O)c3ccc(C)c(Nc4nccc(-c5cccnc5)n4)c3)cc(C(F)(F)F)c2)cn1` [Ethane sulfonate, ethane sulfonate salt of 4-methyl-N-[3-(4-methyl-imidazol-1-yl)-5-trifluoromethyl-phenyl]-3-(4-pyridin-3-yl-pyrimidin-2-ylamino)-benzamide], in data set [1], the Decomposition temperature was determined as 220 °C and the “decomposes at” value is “about 220 °C”. Also, the “Solubility at pH 3.0” value in data set [3] came out at 2.8 μg/mL. For the same molecule, the “% moisture gain” value in data set [2] is 1.11%.

`Cc1cn(-c2cc(NC(=O)c3ccc(C)c(Nc4nccc(-c5cccnc5)n4)c3)cc(C(F)(F)F)c2)cn1` [Methane sulfonate, 4-methyl-N-[3-(4-methyl-imidazol-1-yl)-5-trifluoromethyl-phenyl]-3-(4-pyridin-3-yl-pyrimidin-2-ylamino)-benzamide mesylate salt]: in data set [1] (mesylate salt), the Decomposition temperature came out at 260 °C. Further, the “decomposes at” value in data set [1] (listed as methane sulfonate (mesylate) salt, mesylate salt) was “about 260 °C”. Moreover, the “Solubility at pH 3.0” value in data set [3] (listed as Methane sulfonate salt, mesylate salt) turned out to be 5.2 μg/mL. The “% moisture gain” value in data set [2] (mesylate salt) is listed as 0.22%.

Regarding `Cc1cn(-c2cc(NC(=O)c3ccc(C)c(Nc4nccc(-c5cccnc5)n4)c3)cc(C(F)(F)F)c2)cn1` [Monophosphate, 4-methyl-N-[3-(4-methyl-imidazol-1-yl)-5-trifluoromethyl-phenyl]-3-(4-pyridin-3-yl-pyrimidin-2-ylamino)-benzamide monophosphate salt], in data set [1] (monophosphate salt), the Decomposition temperature is 212 °C and the “decomposes at” value was “about 212 °C”. Further, the “% moisture gain” value in data set [2] (monophosphate salt) worked out at 1.33%.

As for `Cc1cn(-c2cc(NC(=O)c3ccc(C)c(Nc4nccc(-c5cccnc5)n4)c3)cc(C(F)(F)F)c2)cn1.O=S(=O)(O)O` [Sulfate (form B), sulfate salt of 4-methyl-N-[3-(4-methyl-imidazol-1-yl)-5-trifluoromethyl-phenyl]-3-(4-pyridin-3-yl-pyrimidin-2-ylamino)-benzamide], in data set [1], the Decomposition temperature stood at 201 °C and the “decomposes at” value was “about 206 °C”. Also, in data set [3], the “Solubility at pH 3.0” value is 6.5 μg/mL. In addition, in data set [2], the “% moisture gain” value came out at 0.22%.

For the molecule `Cc1cn(-c2cc(NC(=O)c3ccc(C)c(Nc4nccc(-c5cccnc5)n4)c3)cc(C(F)(F)F)c2)cn1.O=P(O)(O)O.O=P(O)(O)O` [diphosphate salt, diphosphate salt of 4-methyl-N-[3-(4-methyl-imidazol-1-yl)-5-trifluoromethyl-phenyl]-3-(4-pyridin-3-yl-pyrimidin-2-ylamino)-benzamide], the “decomposes at” value in data set [1] is “about 210 °C”.

On to `Cc1cn(-c2cc(NC(=O)c3ccc(C)c(Nc4nccc(-c5cccnc5)n4)c3)cc(C(F)(F)F)c2)cn1` [p-Toluene sulfonate, 4-methyl-N-[3-(4-methyl-imidazol-1-yl)-5-trifluoromethyl-phenyl]-3-(4-pyridin-3-yl-pyrimidin-2-ylamino)-benzamide p-toluene sulfonate salt], for which, in data set [1], the Decomposition temperature is 256 °C and the “decomposes at” value was “about 256 °C”. Besides, in data set [2], the “% moisture gain” value was 1.02%.

What is called Solubility is the dissolved amount per volume that the medium holds.

The values are drawn from US8580806B2, “Salts of 4-methyl N-[3-(4-methyl-imidazol-1-yl)-5-trifluoromethyl-phenyl]-3-(4-pyridin-3-yl-pyrimidin-2-ylamino)-benzamide” (Novartis AG, priority 2005, dated 2013).
